19 compounds from patent publication US6503935B1, “Imidazoles and related compounds as α1A agonists” (Abbott Laboratories, priority 1998, dated 2003) can be followed below.

In test [1] the target is T1, α1B (rat spleen) (Rattus norvegicus, UniProt P15823).
T1 construct: α1B (rat spleen) and α1D (rat aorta) receptors; from tissue; host or cells: rat spleen
T1 sequence (P15823 1-515): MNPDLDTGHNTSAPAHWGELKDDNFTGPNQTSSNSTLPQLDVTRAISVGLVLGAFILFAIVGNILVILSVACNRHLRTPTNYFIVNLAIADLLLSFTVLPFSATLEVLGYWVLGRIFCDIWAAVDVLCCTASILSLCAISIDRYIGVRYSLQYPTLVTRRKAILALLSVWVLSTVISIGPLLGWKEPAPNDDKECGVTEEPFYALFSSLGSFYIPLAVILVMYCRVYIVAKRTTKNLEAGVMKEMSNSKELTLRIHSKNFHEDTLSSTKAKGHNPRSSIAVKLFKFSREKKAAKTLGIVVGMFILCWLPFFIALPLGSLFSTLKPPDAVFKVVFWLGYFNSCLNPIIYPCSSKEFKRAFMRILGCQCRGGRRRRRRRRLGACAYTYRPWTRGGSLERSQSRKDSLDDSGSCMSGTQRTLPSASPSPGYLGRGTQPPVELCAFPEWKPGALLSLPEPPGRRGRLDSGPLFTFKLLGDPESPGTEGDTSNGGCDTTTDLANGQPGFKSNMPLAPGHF
Put plainly: Agonist contraction of smooth muscle tissue, rat spleen. It is filed as cell-based. As to conditions: rat spleen; for EC50: read-out: Agonist Tissue Response (pD2) α1B (rat spleen) (converted).

Test [2] has as its target T2, α1D (rat aorta) (Rattus norvegicus, UniProt P23944).
T2 construct: α1B (rat spleen) and α1D (rat aorta) receptors; from tissue; host or cells: rat aorta strips, endothelium removed
T2 sequence (P23944 1-561): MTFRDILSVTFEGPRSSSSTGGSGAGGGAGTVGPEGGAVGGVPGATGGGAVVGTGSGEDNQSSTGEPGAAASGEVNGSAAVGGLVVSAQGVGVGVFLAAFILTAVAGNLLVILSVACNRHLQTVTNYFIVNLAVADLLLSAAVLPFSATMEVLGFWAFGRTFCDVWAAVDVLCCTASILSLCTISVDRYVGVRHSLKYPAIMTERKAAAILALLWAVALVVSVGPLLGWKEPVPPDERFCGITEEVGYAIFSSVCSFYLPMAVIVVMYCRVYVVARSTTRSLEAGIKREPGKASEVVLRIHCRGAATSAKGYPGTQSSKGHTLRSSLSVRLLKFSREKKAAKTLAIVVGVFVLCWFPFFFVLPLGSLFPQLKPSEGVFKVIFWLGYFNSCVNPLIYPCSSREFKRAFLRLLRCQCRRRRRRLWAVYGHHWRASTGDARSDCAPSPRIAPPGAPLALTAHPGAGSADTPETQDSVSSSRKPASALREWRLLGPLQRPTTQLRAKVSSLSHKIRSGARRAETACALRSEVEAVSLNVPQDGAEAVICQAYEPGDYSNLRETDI
Kind of test: Agonist contraction of smooth muscle tissue, rat aorta. It is filed as cell-based. The conditions noted are these: rat aorta, endothelium removed; for EC50: read-out: Agonist Tissue Response (pD2) α1D (rat aorta) (converted).

Test [3] has as its target T3, α1A (rat submaxillary gland) (Rattus norvegicus, UniProt P43140).
T3 construct: α1A (rat submaxillary gland); from tissue; host or cells: rat submaxillary gland
T3 sequence (P43140 1-466): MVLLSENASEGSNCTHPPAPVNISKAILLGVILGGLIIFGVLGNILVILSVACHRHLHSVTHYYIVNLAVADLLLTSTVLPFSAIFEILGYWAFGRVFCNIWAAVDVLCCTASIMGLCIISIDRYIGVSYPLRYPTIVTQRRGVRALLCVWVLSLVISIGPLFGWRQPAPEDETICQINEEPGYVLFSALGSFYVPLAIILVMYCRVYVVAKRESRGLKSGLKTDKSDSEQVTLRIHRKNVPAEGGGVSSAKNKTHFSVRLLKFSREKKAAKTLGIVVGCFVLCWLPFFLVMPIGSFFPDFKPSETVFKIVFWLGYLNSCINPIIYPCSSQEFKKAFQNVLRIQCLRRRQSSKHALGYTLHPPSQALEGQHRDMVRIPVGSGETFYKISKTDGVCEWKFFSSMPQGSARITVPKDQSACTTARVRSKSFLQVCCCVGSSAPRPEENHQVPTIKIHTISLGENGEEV
Kind of test: Radioligand binding with [3H]-prazosin, α1A. As to conditions: rat submaxillary gland, [3H]-prazosin. As for the experimental part:
(§1) For purposes of discussing α1 adrenoceptor subtypes, the IUPHAR convention of using lower case letters to define molecular clones and upper case letters to indicate pharmacologically defined adrenoceptors has been followed. Compounds of formula I were evaluated in radioligand binding assays specific for α1A (rat submaxillary gland), α1b (hamster receptor expressed in mouse fibroblasts) and α1d (rat receptor expressed in mouse fibroblasts) using [^3H]-prazosin as the radioligand as described in Knepper, et al. J. Pharm.

Test [4] deals with T4, α1A (rabbit urethra) (Oryctolagus cuniculus, UniProt O02824).
T4 construct: tested for α1A functional activity using rabbit urethra; from tissue; host or cells: rabbit urethra
T4 sequence (O02824 1-466): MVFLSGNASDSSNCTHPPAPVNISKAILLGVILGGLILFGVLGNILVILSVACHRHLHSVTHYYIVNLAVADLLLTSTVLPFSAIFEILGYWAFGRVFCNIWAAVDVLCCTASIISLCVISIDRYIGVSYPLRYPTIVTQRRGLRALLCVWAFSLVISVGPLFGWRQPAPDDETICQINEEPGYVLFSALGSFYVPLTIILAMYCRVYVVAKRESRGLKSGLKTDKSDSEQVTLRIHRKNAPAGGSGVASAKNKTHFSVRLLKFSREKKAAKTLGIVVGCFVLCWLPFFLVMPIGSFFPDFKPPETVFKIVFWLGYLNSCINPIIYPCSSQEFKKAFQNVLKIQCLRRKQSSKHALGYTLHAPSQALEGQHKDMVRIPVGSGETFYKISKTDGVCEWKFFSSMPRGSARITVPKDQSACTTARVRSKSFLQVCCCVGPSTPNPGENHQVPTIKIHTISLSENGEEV
Put plainly: Agonist contraction of smooth muscle tissue, rabbit urethra. It is filed as cell-based. The conditions noted are these: rabbit urethra; for EC50: read-out: Agonist Tissue Response (pD2) α1A (rab ureth) (converted). As for the experimental part:
Most of the compounds were tested for α1A functional activity using rabbit urethra as follows. Female New Zealand white rabbits (2.0-3.5 Kg) were sedated with CO2 and decapitated. […] Subsequent experimental conditions were as described above for the other tissues. Agonist concentration response curves were cumulative except for the vas deferens assay in which the transient response made such measurements impractical.

The target of test [5] is T5, α1d (rat receptor expressed in mouse fibroblasts) (Rattus norvegicus, UniProt P23944).
T5 construct: expressed in transfected cells; host or cells: mouse fibroblasts
T5 sequence (P23944 1-561): T2 sequence (P23944 1-561)
Put plainly: Radioligand binding with [3H]-prazosin, α1d. As to conditions: rat receptor expressed in mouse fibroblasts, [3H]-prazosin. As for the experimental part:
as §1

Setting [6] is: read-out: Radioligand Binding Ki α1d (Rat).

What is called Ki is a measure of affinity in units of concentration, obtained from inhibition or displacement.

Structures can show the parent of a compound that is named as a salt. Where two headings read alike, the source gives them in different places.

As for `O=S(=O)(CC(F)(F)F)Nc1cccc2c1CCCC2c1c[nH]cn1` (single isomer, unassigned; (-)) [Example 35, (−)-N-[5,6,7,8-tetrahydro-5-(1H-imidazol-4-yl)-1-naphthalenyl]-2,2,2-trifluoroethanesulfonamide], the EC50 in test [1] was greater than 1000 µM; in test [2], greater than 1000 µM; in test [4], 81.3 µM. In addition, affinity in test [3] was put at a Ki of 2.18 µM.

`CS(=O)(=O)Nc1ccc(O)c2c1CCCC2c1c[nH]cn1` (centres unmarked) [Example 24, N-[5,6,7,8-tetrahydro-4-hydroxy-5-(1H-imidazol-4-yl)-1-naphthalenyl]methanesulfonamide, maleate]: the EC50 was greater than 1000 µM in test [1], greater than 1000 µM in test [2] and 24.5 µM in test [4]. Besides, in test [3], the Ki was 0.712 µM.

Regarding `CCS(=O)(=O)Nc1ccc(OC)c2c1CCCC2c1c[nH]cn1.O=C(O)C=CC(=O)O` (centres unmarked) [Example 25, maleate], the Ki in test [3] is 2.46 µM. Consider `CCS(=O)(=O)Nc1ccc(OC)c2c1CCCC2c1c[nH]cn1.O=C(O)C=CC(=O)O` (centres unmarked) [Example 25], for which, in test [1], the “Agonist Tissue Response (pD2) α1B (rat spleen)” value is given as 3.12. Besides, the “Agonist Tissue Response (pD2) α1D (rat aorta)” value in test [2] is less than 3.00. Further, in test [4], the “Agonist Tissue Response (pD2) α1A (rab ureth)” value was 4.48. Turning to `O=C(O)C=CC(=O)O.O=S(=O)(Nc1cccc2c1CCCC2c1c[nH]cn1)C1CC1` (centres unmarked) [Example 27, N-[5,6,7,8-tetrahydro-(1H-imidazol-4-yl)-1-naphthalenyl]cyclopropanesulfonamide, maleate], the Ki in test [5] (setting [6]) is 2.67 µM; in test [3], 0.531 µM. Moreover, the “Agonist Tissue Response (pD2) α1A (rab ureth)” value in test [4] came out at 5.25. Take `CS(=O)(=O)Nc1cccc2c1CCCCC2c1c[nH]cn1` (centres unmarked) [Example 38, N-[5-(1H-imidazol-4-yl)-6,7,8,9-tetrahydro-5H-benzo[a]cyclohepten-1-yl]methanesulfonamide, maleate]: the inhibition constant Ki came out at 2.54 µM in test [5] (setting [6]) and 1.36 µM in test [3]. Besides, the EC50 in test [4] is 19.1 µM. On to `CCS(=O)(=O)Nc1cccc2c1CCCCC2c1c[nH]cn1` (centres unmarked) [Example 40, N-[5-(1H-imidazol-4-yl)-6,7,8,9-tetrahydro-5H-benzo[a]cyclohepten-1-yl]ethanesulfonamide, maleate], for which affinity in test [3] was put at a Ki of 1.34 µM. Turning to `CCS(=O)(=O)Nc1ccc(Cl)c2c1CCCC2c1c[nH]cn1` (centres unmarked) [Example 42, N-[4-chloro-5-(1H-imidazol-4-yl)-5,6,7,8-tetrahydro-1-naphthalenyl]ethanesulfonamide, maleate], the Ki was determined as 2.28 µM in test [5] (Radioligand Binding Ki α1d (Rat)) and 0.359 µM in test [3]. For the same compound, the EC50 in test [4] was greater than 1000 µM. Consider `CCC(O)(c1cccc(NS(=O)(=O)CC)c1)c1c[nH]cn1` (centres unmarked) [Example 55, N-[3-(1-hydroxy-1-(1H-imidazol-4-yl)propyl)phenyl]ethanesulfonamide], for which the Ki in test [5] (setting [6]) came out at 2.34 µM; in test [3], 3.65 µM. In test [3], `Cc1noc(C)c1S(=O)(=O)Nc1cccc2c1CCCC2c1cnc[nH]1` (centres unmarked) [Example 61, N-[5-(1H-imidazol-5-yl)-5,6,7,8-tetrahydro-1-naphthalenyl]-3,5-dimethyl-4-isoxazolesulfonamide] yielded a Ki of 1.56 µM. On to `CCCS(=O)(=O)Nc1cccc2c1CCCC2c1c[nH]cn1` (centres unmarked) [Example 63, N-[5-(1H-imidazol-5-yl)-5,6,7,8-tetrahydro-1-naphthalenyl]-1-propanesulfonamide], for which the Ki in test [3] is 1.72 µM. Compound `CCCCS(=O)(=O)Nc1cccc2c1CCCC2c1cnc[nH]1` (centres unmarked) [Example 64, N-[5-(1H-imidazol-5-yl)-5,6,7,8-tetrahydro-1-naphthalenyl]-1-butanesulfonamide] registered a Ki in test [3] of 4.15 µM.

`Cc1ccc(S(=O)(=O)Nc2cccc3c2CCCC3c2cnc[nH]2)cc1` (centres unmarked) [Example 68, N-[5-(1H-imidazol-5-yl)-5,6,7,8-tetrahydro-1-naphthalenyl]-4-methylbenzenesulfonamide] yielded a Ki in test [3] of 5.28 µM. Regarding `Cc1ccccc1S(=O)(=O)Nc1cccc2c1CCCC2c1cnc[nH]1` (centres unmarked) [Example 69, N-[5-(1H-imidazol-5-yl)-5,6,7,8-tetrahydro-1-naphthalenyl]-2-methylbenzenesulfonamide], the Ki in test [3] is 4.47 µM. Consider `O=S(=O)(Nc1cccc2c1CCCC2c1cnc[nH]1)c1ccc(Cl)s1` (centres unmarked) [Example 72, 5-Chloro-N-[5-(1H-imidazol-5-yl)-5,6,7,8-tetrahydro-1-naphthalenyl]-2-thiophenesulfonamide], for which the Ki in test [5] (setting [6]) was 2.28 µM; in test [3], 1.51 µM. With `Cc1nn(C)c(Cl)c1S(=O)(=O)Nc1cccc2c1CCCC2c1cnc[nH]1` (centres unmarked) [Example 74, 5-Chloro-N-[5-(1H-imidazol-5-yl)-5,6,7,8-tetrahydro-1-naphthalenyl]-1,3-dimethyl-1H-pyrazole-4-sulfonamide], the Ki in test [3] came out at 5.06 µM. In turn, `CC(=O)Nc1nc(C)c(S(=O)(=O)Nc2cccc3c2CCCC3c2cnc[nH]2)s1` (centres unmarked) [Example 76, N-[5-({[5-(1H-imidazol-5-yl)-5,6,7,8-tetrahydro-1-naphthalenyl]amino}sulfonyl)-4-methyl-1,3-thiazol-2-yl]acetamide] showed a Ki in test [3] of 3.21 µM.

Consider `O=S(=O)(CC(F)(F)F)Nc1cccc(Cc2c[nH]cn2)c1` [Example 78, 2,2,2-trifluoro-N-[3-(1H-imidazol-4-ylmethyl)phenyl]ethanesulfonamide, maleate], for which the EC50 in test [4] was 8.91 µM. “Methyl 2-({[5-(1H-imidazol-5-yl)-5,6,7,8-tetrahydro-1-naphthalenyl]amino}sulfonyl)-3-thiophenecarboxylate [Example 75]”: the Ki in test [3] turned out to be 4.6 µM.
